Data from US12213483B1, “Herbicidal compositions comprising trifludimoxazin” (BASF SE, priority 2024, dated 2025).

Key:
Assay type in all cases: in vivo
Sorghum bicolor (SORVU) = test: Post-emergence application in field trials, SORVU; conditions: 22 DAT; water volume 200 l/ha; growth stage 21-31; volunteer crop, non PPO-i herbicide tolerant; 20 g ai/ha
Method: (§1) In the examples below, using the method of S. R. Colby (1967) “Calculating synergistic and antagonistic responses of herbicide combinations”, Weeds 15, p. 22ff., the value E, which is expected if the activity of the individual active compounds is only additive, was calculated: E=X+Y−(X·Y/100) • where • X=percent activity using active herbicide A at an application rate a; • Y=percent activity using active trifludimoxazin at an application rate b; • E=expected activity (in %) by A+B at application rates a+b.
(§2) If the value found experimentally is higher than the value E calculated according to Colby, a synergistic effect is present.
(§3) On field test sites, natural weed infestation or seeded weeds were treated post-emergence of the weeds.
(§4) In the field trials, the weedy plants were treated as indicated below.
(§5) Herbicide A-1 (342 g/I), trifludimoxazin (500 g/I) and saflufenacil (342 g/I) were, together with addition of 1% MSO (methylated seed oil) as adjuvant (unless indicated otherwise), formulated in water as distribution medium as indicated and sprayed with commercial flat fan nozzles.
(§6) In the following experiments, the herbicidal activity for the individual herbicidal compositions (solo and mixture applications) was assessed at the indicated days after treatment (DAT). […]

[1] = tested on: Amaranthus palmeri (AMAPA); test: Post-emergence application in field trials, AMAPA; conditions: 21 DAT, water volume 200 l/ha, 0.25 l/ha Dash MSO Max, pre plant burndown, height 30 cm
Method: as §1, §2, §3, §4, §5
(§7) In the following experiments, the herbicidal activity for the individual herbicidal compositions (solo and mixture applications) was assessed at the indicated days after treatment (DAT). The assessments for the damage on undesired weeds caused by the composition was carried out using a scale from 0 to 100%, compared to the untreated control plants. Here, 0 means no damage and 100 means complete destruction of the plants.
(§8) Herbicide A-1 (100 g/l) and trifludimoxazin (500 g/l) were, together with addition of 1% MSO (methylated seed oil) as adjuvant (unless indicated otherwise), formulated in water as distribution medium as indicated and sprayed with commercial flat fan nozzles.

Kochia scoparia (KCHSC) [2] = test: Post-emergence application in field trials, KCHSC; conditions: 28 DAT; water volume 100 l/ha; pre plant burndown; growth stage 11-16; height 1-9 cm; 18 g ai/ha
Method: as §1, §2, §3, §4, §5, §6

[3] = tested on: Erigeron canadensis (ERICA); test: Post-emergence application in greenhouse trials, ERICA; conditions: 20 DAT; GS 19; A-1 0.2 g ai/ha
Method: as §1, §2
(§9) The culture containers used were plastic pots containing loamy sand with approximately 3.0% of humus as substrate. The seeds of the test plants were sown separately for each species.
For the post-emergence treatment, the test plants were grown to a plant height of from 3 to 15 cm, depending on the plant habit, and only then treated with the active compounds which had been suspended or emulsified in water. To this end, the test plants were either sown directly, and grown in the same containers, or they were first grown separately as seedlings and transplanted into the test containers a few days prior to treatment. […]
The test period extended over 2 to 4 weeks. During this time, the plants were tended and their response to the individual treatments was evaluated. […]

[4] = tested on: Brachiaria decumbens (BRADC); test: Post-emergence application in field trials, BRADC; conditions: 3 DAT; water volume 200 l/ha; growth stage 21-31; height 3-20 cm; 20 g ai/ha
Method: as §1, §2, §3, §4, §5, §6

[5] = tested on: Digitaria sanguinales (DIGSA); test: Post-emergence application in greenhouse trials, DIGSA
Method: as §1, §2, §9
(§10) For the post-emergence treatment, the test plants were grown to a plant height of from 3 to 15 cm, depending on the plant habit, and only then treated with the active compounds which had been suspended or emulsified in water. To this end, the test plants were either sown directly, and grown in the same containers, or they were first grown separately as seedlings and transplanted into the test containers a few days prior to treatment.
(§11) Depending on the species, the plants were kept at 10-25° C. and 20-35° C., respectively.
(§12) The test period extended over 2 to 4 weeks. During this time, the plants were tended and their response to the individual treatments was evaluated.
(§13) Evaluation was carried out using a scale from 0 to 100. 100 means no emergence of the plants, or complete destruction of at least the above-ground parts, and 0 means no damage or normal course of growth. A good herbicidal activity is given at values of at least 70, and very good herbicidal activity is given at values of at least 85.
(§14) In the greenhouse trials, unless indicated otherwise, herbicide A, trifludimoxazin and saflufenacil were formulated (50 g/I) and applied with addition of 1% MSO (methylated seed oil) as adjuvant. The solvent used was water (200 I/ha).

Setaria italica (SETIT) = test: Post-emergence application in field trials, SETIT; conditions: 22 DAT; water volume 200 l/ha; growth stage 21-31; 30 g ai/ha
Method: as §1, §2, §3, §4, §5, §6

[6] = tested on: Euphorbia heterophylla (EPHHL); test: Post-emergence application in field trials, EPHHL; conditions: 43 DAT; water volume 200 l/ha; growth stage 16-18; height 10-15 cm; 20 g ai/ha
Method: as §1, §2, §3, §4, §5, §6

Setaria viridis (SETVI) = test: Post-emergence application in greenhouse trials, SETVI
Method: as §1, §2, §9, §10, §11, §12, §13, §14

Avena fatua (AVEFA) = test: Post-emergence application in greenhouse trials, AVEFA
Method: as §1, §2, §9, §10, §11, §12, §13, §14

Kochia scoparia (KCHSC) [7] = test: Post-emergence application in greenhouse trials, KCHSC
Method: as §1, §2, §9, §10, §11, §12, §13, §14

[8] = tested on: Senna obtusifolia (CASOB); test: Post-emergence application in field trials, CASOB; conditions: 43 DAT, water volume 200 l/ha, growth stage 12-35, height 5-20 cm
Method: as §1, §2, §3, §4, §5, §7, §8

Sinapis alba (SINAL) = test: Post-emergence application in field trials, SINAL; conditions: 7 DAT; water volume 200 l/ha; growth stage 14-21; height 11-12 cm; 12.5 g ai/ha
Method: as §1, §2, §3, §4, §5, §6

Cyperus iria (CYPIR) = test: Post-emergence application in field trials, CYPIR; conditions: 3 DAT, height 3-5 cm
Method: as §1, §2, §3, §4, §5, §7, §8

[9] = tested on: Commelina benghalensis (COMBE); test: Post-emergence application in greenhouse trials, COMBE
Method: as §1, §2, §9, §10, §11, §12, §13, §14

CCOC(=O)COc1ccccc1Oc1nc(-n2c(=O)cc(C(F)(F)F)n(C)c2=O)c(F)cc1Cl [A-1, ethyl 2-[2-[[3-chloro-5-fluoro-6-[3-methyl-2,6-dioxo-4-(trifluoromethyl)pyrimidin-1-yl]-2-pyridyl]oxy]phenoxy]acetate]
% Herbicidal activity (Sorghum bicolor (SORVU)): 93%
% Herbicidal activity ([1]; A-1 12.5 g ai/ha): 70%
% Herbicidal activity ([1]; A-1 25 g ai/ha): 85%
% Herbicidal activity (Kochia scoparia (KCHSC) [2]): 57%
% Herbicidal activity [3]: 10%
% Herbicidal activity [4]: 77%
% Herbicidal activity ([5]; 7 DAT, GS 12, A-1 0.3 g ai/ha): 45%
% Herbicidal activity ([5]; 7 DAT, GS 12, A-1 0.4 g ai/ha): 50%
% Herbicidal activity ([5]; 7 DAT, GS 12, A-1 0.8 g ai/ha): 65%
% Herbicidal activity ([5]; 7 DAT, GS 12, A-1 0.9 g ai/ha): 90%
% Herbicidal activity ([5]; 19 DAT, B-1 formulated as 500 g/l, GS 13, A-1 1 g ai/ha): 95%
% Herbicidal activity (Setaria italica (SETIT)): 88%
% Herbicidal activity [6]: 73%
% Herbicidal activity (Setaria viridis (SETVI); 7 DAT, GS 14, A-1 0.2 g ai/ha): 30%
% Herbicidal activity (Setaria viridis (SETVI); 7 DAT, GS 14, A-1 0.3 g ai/ha): 30%
% Herbicidal activity (Setaria viridis (SETVI); 7 DAT, GS 14, A-1 0.4 g ai/ha): 40%
% Herbicidal activity (Setaria viridis (SETVI); 20 DAT, GS 14, A-1 0.3 g ai/ha): 15%
% Herbicidal activity (Setaria viridis (SETVI); 20 DAT, growth stage 14, 0.3 g ai/ha): 15%
% Herbicidal activity (Avena fatua (AVEFA); 7 DAT, GS 13, A-1 1 g ai/ha): 65%
% Herbicidal activity (Avena fatua (AVEFA); 20 DAT, B-1 formulated as 500 g/l, GS 12, A-1 2 g ai/ha): 98%
% Herbicidal activity (Avena fatua (AVEFA); 20 DAT, GS 13, A-1 0.3 g ai/ha): 15%
% Herbicidal activity (Avena fatua (AVEFA); 20 DAT, growth stage 13, 0.3 g ai/ha): 15%
% Herbicidal activity (Kochia scoparia (KCHSC) [7]; 6 DAT, GS 33, A-1 0.4 g ai/ha): 55%
% Herbicidal activity (Kochia scoparia (KCHSC) [7]; 6 DAT, GS 33, A-1 0.5 g ai/ha): 65%
% Herbicidal activity (Kochia scoparia (KCHSC) [7]; 6 DAT, GS 33, A-1 0.9 g ai/ha): 90%
% Herbicidal activity (Kochia scoparia (KCHSC) [7]; 20 DAT, GS 33, A-1 0.2 g ai/ha): 15%
% Herbicidal activity (Kochia scoparia (KCHSC) [7]; 20 DAT, GS 33, A-1 0.3 g ai/ha): 55%
% Herbicidal activity (Kochia scoparia (KCHSC) [7]; 20 DAT, GS 33, A-1 0.5 g ai/ha): 55%
% Herbicidal activity (Kochia scoparia (KCHSC) [7]; 20 DAT, GS 33, A-1 0.9 g ai/ha): 90%
% Herbicidal activity (Kochia scoparia (KCHSC) [7]; 20 DAT, growth stage 33, 0.3 g ai/ha): 55%
% Herbicidal activity (Kochia scoparia (KCHSC) [7]; 20 DAT, growth stage 33, 0.5 g ai/ha): 55%
% Herbicidal activity ([8]; 20 g ai/ha): 58%
% Herbicidal activity ([8]; 30 g ai/ha): 73%
% Herbicidal activity (Sinapis alba (SINAL)): 55%
% Herbicidal activity (Cyperus iria (CYPIR); water volume 200 l/ha, growth stage 13-14, 25 g ai/ha): 23%
% Herbicidal activity (Cyperus iria (CYPIR); water volume 300 l/ha, burndown in fruit plantation (citrus), GS 13-14, A-1 25 g ai/ha): 23%
% Herbicidal activity ([9]; 6 DAT, GS 21, A-1 0.3 g ai/ha): 65%
% Herbicidal activity ([9]; 20 DAT, GS 21, A-1 0.3 g ai/ha): 45%
% Herbicidal activity ([9]; 20 DAT, growth stage 21, 0.3 g ai/ha): 45%
